Experiments:
[1] = frontal affinity chromatography (FAC), association constant to PA sugar chains having α1→6 L-fucose; type: binding; settings: 25 degrees C.
Protocol: (§1) The following section will describe a method of calculating an association constant by frontal affinity chromatography (FAC). This method is based on the following principle. […] Then, the elution front end (front) is observed immediately. When there is an affinity with lectin, the elution of the sugar chain is delayed.
(§2) The preparation of a lectin column used in the apparatus is performed in the method as described below. 1. Purified lectin is dissolved in 0.1 to 0.2M of NaHCO3 buffer solution (pH 8.3 to 8.5). 2. The lectin is immobilized, via a lectin primary amino group, a carrier such as NHS activated sepharose. 3. Then, the lectin is blocked by Tris buffer solution including primary amine or ethanolamine for example. 4. Lectin-sepharose is suspended in 10 mM Tris buffer, including 0.8% of NaCl (pH 7.4, TBS). Then, lectin immobilized resin is filled in a miniature column (φ2 mm×10 mm, 31.4 μl). 5. The miniature column in which the lectin immobilized resin is filled is protected by a holder and the lectin column is connected to an FAC automatic analysis apparatus (FAC-1, SHIMADZU CORPORATION).
(§3) Then, the elution of the PA sugar chain from the column is detected by a fluorescence detector (excitation wavelength/fluorescence wavelength: 310 nm/380 nm).
(§4) Based on the detection data, by using the elution front end (Vo) of the sugar chain (PA rhamnose) not interacting with lectin as a reference, the delay (V−Vo) of the elution front end (V) of a sugar chain interacting with lectin is calculated as an interaction strength. Then, based on the following FAC criteria expressions, the association constant (Ka) between the sugar chain and lectin is calculated based on V−Vo and Bt. If the interaction strength (V−Vo value) and the association constant are higher, a higher affinity is caused between lectin and an L-fucose α1→6 sugar chain.
(§5) [In the formula, A means substance used for the elution, Ao means the initial concentration of the substance A, B means a immobilized ligand, V means the elution volume, Vo means the elution front end volume of the substance not interacting with the immobilized ligand B at all, Bt means an effective ligand amount, Kd means a dissociation constant (an inverse of the association constant)].
(§6) Pyridylaminated (PA) sugar chains shown in FIG. 1 and FIG. 2 were used to frontal affinity chromatography (FAC) analysis. PA sugars were purchased from TAKARA BIO INC., SEIKAGAKU BIOBUSINESS CORPORATION, and Masuda Chemical Industries co., LTD. PA sugar were also obtained by pyridylaminating, by GlycoTAG®(TAKARA BIO INC.), an unlabeled sugar chain or a sugar chain obtained by subjecting a sugar chain to enzyme digestion for example.
(§7) Lectin was dissolved in 0.2 M NaHCO3 buffer solution (pH 8.3) including 0.5 M NaCl and coupled to the NHS-activated sepharose (GE Healthcare Bioscience) by following the manufacturer's instructions. Then, lectin immobilized sepharose was suspended in 10 mM Tris buffer (pH 7.4, TBS) including […] and the resultant matter was filled in a miniature column (φ2 mm×10 mm, 31.4 μl).
(§8) Frontal affinity chromatography was performed using FAC automatic analysis apparatus (FAC-1, SHIMADZU CORPORATION). In particular, the above-prepared lectin column was inserted to a stainless steel holder and the holder was connected to FAC-1 apparatus. The flow rate and the column temperature were maintained at 0.125 ml/min and 25 degrees C., respectively. After the miniature column was equilibrated by the TBS, an excessive volume (0.5 ml to 4 ml) of a PA sugar chain (3.75 nM or 7.5 nM) was continuously inputted to the column using an automatic sampling apparatus.
(§9) The fluorescent strength of the eluate of the PA sugar (excitation wavelength of 310 nm and fluorescence wavelength of 380 nm) was monitored to measure the interaction strength [a difference of the front end eluate to the standard oligosaccharide (PA rhamnose): V−V0]. […]

[2] = frontal affinity chromatography (FAC), association constant to PA sugar chains having other L-fucose; type: binding; settings: for binding to non-L-fucose α1→6 sugar chain: FAC; for association constant Ka: 25 degrees C.
Protocol: as §1, §2, §3, §4, §5, §6, §7, §8, §9

[3] = Sugar chain No. 728 (as listed in Table 5/12)

Substance	association constant Ka ([1]; Sugar chain No. 015)	association constant Ka ([1]; Sugar chain No. 201)	association constant Ka ([1]; Sugar chain No. 202)	association constant Ka ([1]; Sugar chain No. 203)	association constant Ka ([1]; Sugar chain No. 401)	association constant Ka ([1]; Sugar chain No. 402)	association constant Ka ([1]; Sugar chain No. 403)	association constant Ka ([1]; Sugar chain No. 404)	association constant Ka ([1]; Sugar chain No. 405)	association constant Ka ([1]; Sugar chain No. 406)	association constant Ka ([1]; Sugar chain No. 410)	association constant Ka ([1]; Sugar chain No. 418)	association constant Ka ([1]; Sugar chain No. 602)	binding to non-L-fucose α1→6 sugar chain [2]	association constant Ka ([2]; Sugar chain No. 419)	association constant Ka ([2]; Sugar chain No. 420)	association constant Ka ([2]; Sugar chain No. 718)	association constant Ka ([2]; Sugar chain No. 719)	association constant Ka ([2]; Sugar chain No. 720)	association constant Ka ([2]; Sugar chain No. 721)	also measured
Lepista sordida lectin [LSL, novel lectin purified from the mushroom Lepista sordida]	190000 M⁻¹	230000 M⁻¹	230000 M⁻¹	200000 M⁻¹	220000 M⁻¹	150000 M⁻¹	220000 M⁻¹	260000 M⁻¹	220000 M⁻¹	160000 M⁻¹	160000 M⁻¹	160000 M⁻¹	130000 M⁻¹	not detected at all	<1000 M⁻¹	<1000 M⁻¹	<1000 M⁻¹	<1000 M⁻¹	<1000 M⁻¹	<1000 M⁻¹	association constant Ka ([2]; Sugar chain No. 722): <1000 M⁻¹; association constant Ka ([2]; Sugar chain No. 723): <1000 M⁻¹; association constant Ka ([2]; Sugar chain No. 726): <1000 M⁻¹; association constant Ka ([2]; Sugar chain No. 727): <1000 M⁻¹; association constant Ka [2, 3]: <1000 M⁻¹; association constant Ka ([2]; Sugar chain No. 729): <1000 M⁻¹; association constant Ka ([2]; Sugar chain No. 730): <1000 M⁻¹; association constant Ka ([2]; Sugar chain No. 731): <1000 M⁻¹; association constant Ka ([2]; Sugar chain No. 739): <1000 M⁻¹; association constant Ka ([2]; Sugar chain No. 909): <1000 M⁻¹; association constant Ka ([2]; Sugar chain No. 910): <1000 M⁻¹; association constant Ka ([2]; Sugar chain No. 931): <1000 M⁻¹; association constant Ka ([2]; Sugar chain No. 932): <1000 M⁻¹; association constant Ka ([2]; Sugar chain No. 933): <1000 M⁻¹
Pholiota terrestris lectin [PTL, novel L-fucose α1→6 specific lectin purified from the mushroom Pholiota terrestris]	500000 M⁻¹	460000 M⁻¹	400000 M⁻¹	330000 M⁻¹	350000 M⁻¹	200000 M⁻¹	340000 M⁻¹	390000 M⁻¹	320000 M⁻¹	220000 M⁻¹	220000 M⁻¹	220000 M⁻¹	120000 M⁻¹	not bound	<1000 M⁻¹	<1000 M⁻¹	<1000 M⁻¹	<1000 M⁻¹	<1000 M⁻¹	<1000 M⁻¹	association constant Ka to L-fucose α1→6 sugar chains ([1]; FAC): ≥ 100000 M⁻¹; association constant Ka ([1]; Sugar chain No. 407): 280000 M⁻¹; association constant Ka ([1]; Sugar chain No. 413): 280000 M⁻¹; association constant Ka ([1]; Sugar chain No. 601): 240000 M⁻¹; association constant Ka ([2]; Sugar chain No. 722): <1000 M⁻¹; association constant Ka ([2]; Sugar chain No. 723): <1000 M⁻¹; association constant Ka ([2]; Sugar chain No. 726): <1000 M⁻¹; association constant Ka ([2]; Sugar chain No. 727): <1000 M⁻¹; association constant Ka [2, 3]: <1000 M⁻¹; association constant Ka ([2]; Sugar chain No. 729): <1000 M⁻¹; association constant Ka ([2]; Sugar chain No. 730): <1000 M⁻¹; association constant Ka ([2]; Sugar chain No. 731): <1000 M⁻¹; association constant Ka ([2]; Sugar chain No. 739): <1000 M⁻¹; association constant Ka ([2]; Sugar chain No. 909): <1000 M⁻¹; association constant Ka ([2]; Sugar chain No. 910): <1000 M⁻¹; association constant Ka ([2]; Sugar chain No. 931): <1000 M⁻¹; association constant Ka ([2]; Sugar chain No. 932): <1000 M⁻¹; association constant Ka ([2]; Sugar chain No. 933): <1000 M⁻¹
Stropharia rugosoannulata lectin [SRL, novel L-fucose α1→6 specific lectin purified from the mushroom Stropharia rugosoannulata]	49000 M⁻¹	64000 M⁻¹	61000 M⁻¹	52000 M⁻¹	57000 M⁻¹	44000 M⁻¹	56000 M⁻¹	58000 M⁻¹	54000 M⁻¹	38000 M⁻¹	39000 M⁻¹	4300 M⁻¹	32000 M⁻¹	not bound	<1000 M⁻¹	<1000 M⁻¹	<1000 M⁻¹	<1000 M⁻¹	<1000 M⁻¹	<1000 M⁻¹	association constant Ka ([1]; Sugar chain No. 407): 10000 M⁻¹; association constant Ka ([1]; Sugar chain No. 413): 10000 M⁻¹; association constant Ka ([1]; Sugar chain No. 601): 10000 M⁻¹; association constant Ka ([2]; Sugar chain No. 722): <1000 M⁻¹; association constant Ka ([2]; Sugar chain No. 723): <1000 M⁻¹; association constant Ka ([2]; Sugar chain No. 726): <1000 M⁻¹; association constant Ka ([2]; Sugar chain No. 727): <1000 M⁻¹; association constant Ka [2, 3]: <1000 M⁻¹; association constant Ka ([2]; Sugar chain No. 729): <1000 M⁻¹; association constant Ka ([2]; Sugar chain No. 730): <1000 M⁻¹; association constant Ka ([2]; Sugar chain No. 731): <1000 M⁻¹; association constant Ka ([2]; Sugar chain No. 739): <1000 M⁻¹; association constant Ka ([2]; Sugar chain No. 909): <1000 M⁻¹; association constant Ka ([2]; Sugar chain No. 910): <1000 M⁻¹; association constant Ka ([2]; Sugar chain No. 931): <1000 M⁻¹; association constant Ka ([2]; Sugar chain No. 932): <1000 M⁻¹; association constant Ka ([2]; Sugar chain No. 933): <1000 M⁻¹
